From patent publication US9125913B2, “Bcl-2-selective apoptosis-inducing agents for the treatment of cancer and immune diseases” (AbbVie Inc., priority 2008, dated 2015) come the findings set out here.

In the assay the test system is GST-Bcl-2. The assay can be described thus: TR-FRET binding assay, Bcl-2. Particulars: TR-FRET Ki values. The gist of the method:
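Ki values come from Wang's competitive-binding equation applied to TR-FRET signal (excitation 340/35 nm; emission 520/525 nm F-Bak peptide, 495/510 nm Tb antibody). Protein, probe and antibody incubated with compound 3 h at room temperature; dilution series began at 50 μM as 2× stock in 10% DMSO.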
A general note: TR-FRET usually uses a lanthanide donor and a delayed reading to cut background.
For the compound `CC1(C)CCC(CN2CCN(c3ccc(C(=O)NS(=O)(=O)c4ccc(NCC5CN(CC#N)CCO5)c([N+](=O)[O-])c4)c(Oc4cccc5[nH]cnc45)c3)CC2)=C(c2ccc(Cl)cc2)C1` (stereo not shown) [EXAMPLE 431, 2-(1H-benzimidazol-4-yloxy)-4-(4-{[2-(4-chlorophenyl)-4,4-dimethylcyclohex-1-en-1-yl]methyl}piperazin-1-yl)-N-{[4-({[4-(cyanomethyl)morpholin-2-yl]methyl}amino)-3-nitrophenyl]sulfonyl}benzamide], the “Binding selectivity ratio (Bcl-XL Ki/Bcl-2 Ki)” value (shortened to “Binding selectivity ratio”) was determined as 677.36.
As to `CC1(C)CCC(CN2CCN(c3ccc(C(=O)NS(=O)(=O)c4ccc(OC5CCN(C6CCOCC6)CC5)c([N+](=O)[O-])c4)c(Oc4ccc5[nH]ccc5c4)c3)CC2)=C(c2ccc(Cl)cc2)C1` [EXAMPLE 389, 4-(4-{[2-(4-chlorophenyl)-4,4-dimethylcyclohex-1-en-1-yl]methyl}piperazin-1-yl)-2-(1H-indol-5-yloxy)-N-({3-nitro-4-[(1-tetrahydro-2H-pyran-4-ylpiperidin-4-yl)oxy]phenyl}sulfonyl)benzamide], the “Binding selectivity ratio” value is given as 685.5.
As to `CC1(C)CCC(CN2CCN(c3ccc(C(=O)NS(=O)(=O)c4cnc(NCC5CCOCC5)c(Br)c4)c(Oc4ccc5[nH]ccc5c4)c3)CC2)=C(c2ccc(Cl)cc2)C1` [EXAMPLE 350, N-({5-bromo-6-[(tetrahydro-2H-pyran-4-ylmethyl)amino]pyridin-3-yl}sulfonyl)-4-(4-{[2-(4-chlorophenyl)-4,4-dimethylcyclohex-1-en-1-yl]methyl}piperazin-1-yl)-2-(1H-indol-5-yloxy)benzamide], the “Binding selectivity ratio” value was above 110.6.
For the compound `CO[C@H]1CC[C@@H](CNc2ccc(S(=O)(=O)NC(=O)c3ccc(N4CCN(CC5=C(c6ccc(Cl)cc6)CC(C)(C)CC5)CC4)cc3Oc3ccc4[nH]ccc4c3)cc2[N+](=O)[O-])CC1` [EXAMPLE 313, Cis-4-(4-{[2-(4-chlorophenyl)-4,4-dimethylcyclohex-1-en-1-yl]methyl}piperazin-1-yl)-2-(1H-indol-5-yloxy)-N-[(4-{[(4-methoxycyclohexyl)methyl]amino}-3-nitrophenyl)sulfonyl]benzamide], the “Binding selectivity ratio” value turned out to be 1500.
Take `CC1(C)CCC(CN2CCN(c3ccc(C(=O)NS(=O)(=O)c4ccc(NCC5CCOC5)c([N+](=O)[O-])c4)c(Oc4cccc5[nH]cnc45)c3)CC2)=C(c2ccc(Cl)cc2)C1` (stereo not shown) [EXAMPLE 439, 2-(1H-benzimidazol-4-yloxy)-4-(4-{[2-(4-chlorophenyl)-4,4-dimethylcyclohex-1-en-1-yl]methyl}piperazin-1-yl)-N-({3-nitro-4-[(tetrahydrofuran-3-ylmethyl)amino]phenyl}sulfonyl)benzamide]: the “Binding selectivity ratio” value amounted to 1496.8.
Turning to `CN(C)CCCNc1ccc(S(=O)(=O)NC(=O)c2ccc(N3CCN(CC4=C(c5ccc(Cl)cc5)CCC(C)(C)C4)CC3)cc2Oc2ccc3[nH]ccc3c2)cc1[N+](=O)[O-]` [Example 51, 4-(4-{[2-(4-chlorophenyl)-5,5-dimethylcyclohex-1-en-1-yl]methyl}piperazin-1-yl)-N-[(4-{[3-(dimethylamino)propyl]amino}-3-nitrophenyl)sulfonyl]-2-(1H-indol-5-yloxy)benzamide], the “Binding selectivity ratio” value worked out at 62.1.
For the compound `CN1CCC(Nc2ccc(S(=O)(=O)NC(=O)c3ccc(N4CCN(CC5=C(c6ccc(Cl)cc6)CC(C)(C)CC5)CC4)c(F)c3Oc3ccc4[nH]ccc4c3)cc2[N+](=O)[O-])CC1` [EXAMPLE 184, 4-(4-{[2-(4-chlorophenyl)-4,4-dimethylcyclohex-1-en-1-yl]methyl}piperazin-1-yl)-3-fluoro-2-(1H-indol-5-yloxy)-N-({4-[(1-methylpiperidin-4-yl)amino]-3-nitrophenyl}sulfonyl)benzamide], the “Binding selectivity ratio” value is on record as above 2345.3.
Regarding `CC1(C)CCC(CN2CCN(c3ccc(C(=O)NS(=O)(=O)c4cnc(OCC5(F)CCN(CC#N)CC5)c(Cl)c4)c(Oc4cccc5[nH]ncc45)c3)CC2)=C(c2ccc(Cl)cc2)C1` [EXAMPLE 419, N-[(5-chloro-6-{[1-(cyanomethyl)-4-fluoropiperidin-4-yl]methoxy}pyridin-3-yl)sulfonyl]-4-(4-{[2-(4-chlorophenyl)-4,4-dimethylcyclohex-1-en-1-yl]methyl}piperazin-1-yl)-2-(1H-indazol-4-yloxy)benzamide], the “Binding selectivity ratio” value worked out at 1071.
With `CC(C1=C(c2ccc(Cl)cc2)CC(C)(C)CC1)N1CCN(c2ccc(C(=O)NS(=O)(=O)c3ccc(NN4CCN(C)CC4)c([N+](=O)[O-])c3)c(Oc3ccc4[nH]ccc4c3)c2)CC1` (stereo not shown) [EXAMPLE 254, 4-(4-{1-[2-(4-chlorophenyl)-4,4-dimethylcyclohex-1-en-1-yl]ethyl}piperazin-1-yl)-2-(1H-indol-5-yloxy)-N-({4-[(4-methylpiperazin-1-yl)amino]-3-nitrophenyl}sulfonyl)benzamide], the “Binding selectivity ratio” value is 421.7.
Consider `CC(=O)N1CCC(Nc2ccc(S(=O)(=O)NC(=O)c3ccc(N4CCN(CC5=C(c6ccc(Cl)cc6)CC(C)(C)CC5)CC4)cc3Oc3ccc4[nH]ccc4c3)cc2[N+](=O)[O-])CC1` [EXAMPLE 334, N-({4-[(1-acetylpiperidin-4-yl)amino]-3-nitrophenyl}sulfonyl)-4-(4-{[2-(4-chlorophenyl)-4,4-dimethylcyclohex-1-en-1-yl]methyl}piperazin-1-yl)-2-(1H-indol-5-yloxy)benzamide], for which the “Binding selectivity ratio” value was above 3697.5.
As to `COCCCNc1ccc(S(=O)(=O)NC(=O)c2ccc(N3CCN(CC4=C(c5ccc(Cl)cc5)CC(C)(C)CC4)CC3)cc2Oc2cccc3[nH]ccc23)cc1[N+](=O)[O-]` [EXAMPLE 318, 4-(4-{[2-(4-chlorophenyl)-4,4-dimethylcyclohex-1-en-1-yl]methyl}piperazin-1-yl)-2-(1H-indol-4-yloxy)-N-({4-[(3-methoxypropyl)amino]-3-nitrophenyl}sulfonyl)benzamide], the “Binding selectivity ratio” value was determined as 102.6.
`CC1(C)CCC(CN2CCN(c3ccc(C(=O)NS(=O)(=O)c4ccc(NCC5COCCO5)c([N+](=O)[O-])c4)c(Oc4cccc5[nH]cnc45)c3)CC2)=C(c2ccc(Cl)cc2)C1` (stereo not shown) [EXAMPLE 450, 2-(1H-benzimidazol-4-yloxy)-4-(4-{[2-(4-chlorophenyl)-4,4-dimethylcyclohex-1-en-1-yl]methyl}piperazin-1-yl)-N-({4-[(1,4-dioxan-2-ylmethyl)amino]-3-nitrophenyl}sulfonyl)benzamide]: the “Binding selectivity ratio” value is listed as 107.3.
For `CC1(C)CCC(CN2CCN(c3ccc(C(=O)NS(=O)(=O)c4ccc(NCC5COCCO5)c([N+](=O)[O-])c4)c(Oc4ccc5[nH]ccc5c4)c3)CC2)=C(c2ccc(Cl)cc2)C1` (stereo not shown) [EXAMPLE 336, 4-(4-{[2-(4-chlorophenyl)-4,4-dimethylcyclohex-1-en-1-yl]methyl}piperazin-1-yl)-N-({4-[(1,4-dioxan-2-ylmethyl)amino]-3-nitrophenyl}sulfonyl)-2-(1H-indol-5-yloxy)benzamide] the value was 2301.3; for `CN(C)CC[C@H](Nc1ccc(S(=O)(=O)NC(=O)c2ccc(N3CCN(Cc4ccccc4-c4ccc(Cl)cc4)CC3)cc2Oc2ccccc2)cc1[N+](=O)[O-])c1cccs1` [Example 161, 4-{4-[(4′-chloro-1,1′-biphenyl-2-yl)methyl]piperazin-1-yl}-N-[(4-{[(1S)-3-(dimethylamino)-1-thien-2-ylpropyl]amino}-3-nitrophenyl)sulfonyl]-2-phenoxybenzamide], above 386.0.
In the case of `Cn1ncc(-c2ccc(Cl)cc2)c1CN1CCN(c2ccc(C(=O)NS(=O)(=O)c3ccc(NCC4CCOCC4)c([N+](=O)[O-])c3)c(Oc3ccc4[nH]ccc4c3)c2)CC1` [EXAMPLE 285, 4-(4-{[4-(4-chlorophenyl)-1-methyl-1H-pyrazol-5-yl]methyl}piperazin-1-yl)-2-(1H-indol-5-yloxy)-N-({3-nitro-4-[(tetrahydro-2H-pyran-4-ylmethyl)amino]phenyl}sulfonyl)benzamide], the “Binding selectivity ratio” value was above 94.4.
As to `COCCOCCN1CC[C@@H](Nc2ccc(S(=O)(=O)NC(=O)c3ccc(N4CCN(CC5=C(c6ccc(Cl)cc6)CC(C)(C)CC5)CC4)cc3Oc3cccc4[nH]cnc34)cc2[N+](=O)[O-])C1` [EXAMPLE 429, 2-(1H-benzimidazol-4-yloxy)-4-(4-{[2-(4-chlorophenyl)-4,4-dimethylcyclohex-1-en-1-yl]methyl}piperazin-1-yl)-N-{[4-({(3R)-1-[2-(2-methoxyethoxy)ethyl]pyrrolidin-3-yl}amino)-3-nitrophenyl]sulfonyl}benzamide], the “Binding selectivity ratio” value is 140.65.
Regarding `CC1(C)CCC(CN2CCN(c3ccc(C(=O)NS(=O)(=O)c4ccc(OC[C@@H]5COCCO5)c([N+](=O)[O-])c4)c(Oc4ccc5[nH]ccc5c4)c3)CC2)=C(c2ccc(Cl)cc2)C1` [EXAMPLE 347, 4-(4-{[2-(4-chlorophenyl)-4,4-dimethylcyclohex-1-en-1-yl]methyl}piperazin-1-yl)-N-({4-[(2S)-1,4-dioxan-2-ylmethoxy]-3-nitrophenyl}sulfonyl)-2-(1H-indol-5-yloxy)benzamide], the “Binding selectivity ratio” value is on record as 1256.7.
Regarding `C[C@H](c1ccccc1-c1ccc(Cl)cc1)N1CCN(c2ccc(C(=O)NS(=O)(=O)c3ccc(NCC4CCOCC4)c([N+](=O)[O-])c3)c(Oc3cccc4[nH]ccc34)c2)CC1` [EXAMPLE 255, 4-{4-[(1R)-1-(4′-chloro-1,1′-biphenyl-2-yl)ethyl]piperazin-1-yl}-2-(1H-indol-4-yloxy)-N-({3-nitro-4-[(tetrahydro-2H-pyran-4-ylmethyl)amino]phenyl}sulfonyl)benzamide], the “Binding selectivity ratio” value is listed as above 84.2.
With `CN1CCC(Nc2ccc(S(=O)(=O)NC(=O)c3ccc(N4CCN(CC5=C(c6ccc(Cl)cc6)CC(C)(C)CC5)CC4)cc3Oc3cccc4c3CCN4)cc2[N+](=O)[O-])CC1` [EXAMPLE 395, 4-(4-{[2-(4-chlorophenyl)-4,4-dimethylcyclohex-1-en-1-yl]methyl}piperazin-1-yl)-2-(2,3-dihydro-1H-indol-4-yloxy)-N-({4-[(1-methylpiperidin-4-yl)amino]-3-nitrophenyl}sulfonyl)benzamide], the “Binding selectivity ratio” value is listed as 23.62.
